Laboratory results from US9447038B2 (SANOFI, priority 2012, dated 2016).
Counter-ions that a name gives are not always drawn.

These compounds were tested against human CXCR3-A receptor (Homo sapiens (Human), UniProt P49682) (assay: 125I-CXCL10 competition radioligand binding assay). Conditions: displacement of 125I-CXCL10 from membranes of CHO cells expressing human recombinant CXCR3-A.
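Further: One-hour incubation of membranes with tracer, bound radioligand separated by glass fibre filtration, IC50 derived from four-parameter nonlinear fit of competition curves.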

human CXCR3-A receptor, sequence (P49682 whole entry): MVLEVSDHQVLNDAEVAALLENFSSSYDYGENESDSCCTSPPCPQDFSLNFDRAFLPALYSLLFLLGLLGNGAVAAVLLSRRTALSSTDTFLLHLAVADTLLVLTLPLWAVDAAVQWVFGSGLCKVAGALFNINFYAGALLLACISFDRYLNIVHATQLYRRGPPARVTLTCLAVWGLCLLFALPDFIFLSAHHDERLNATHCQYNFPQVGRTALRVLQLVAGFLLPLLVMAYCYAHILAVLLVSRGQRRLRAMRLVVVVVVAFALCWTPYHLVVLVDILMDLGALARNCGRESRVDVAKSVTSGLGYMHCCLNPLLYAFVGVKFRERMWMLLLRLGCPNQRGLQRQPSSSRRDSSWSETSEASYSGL

Row | IC50 [nM] | SMILES
1 | 192 | COc1cc(CN(CC2CC2)C(CC(=O)O)c2ccc(Cl)cc2)ccc1CCCN1C(=O)CCC1=O (stereo not drawn) [Example 132, 3-(4-Chloro-phenyl)-3-(cyclopropylmethyl-{4-[3-(2,5-dioxo-pyrrolidin-1-yl)-propyl]-3-methoxy-benzyl}-amino)-propionic acid]
2 | 177 | CCCN(Cc1ccc(CCCN2C(=O)CCC2=O)c(OC)c1)C(CC(=O)O)c1ccc(Cl)cc1 (stereo not drawn) [Example 133, 3-(4-Chloro-phenyl)-3-({4-[3-(2,5-dioxo-pyrrolidin-1-yl)-propyl]-3-methoxy-benzyl}-propyl-amino)-propionic acid]
3 | 296 | COc1cc(CN(CC(C)C)C(CC(=O)O)c2ccc(Cl)cc2)ccc1CCCN1C(=O)CCC1=O (stereo not drawn) [Example 134, 3-(4-Chloro-phenyl)-3-({4-[3-(2,5-dioxo-pyrrolidin-1-yl)-propyl]-3-methoxy-benzyl}-isobutyl-amino)-propionic acid]
4 | 116 | CCCCN(Cc1ccc(CCCN2C(=O)CCC2=O)c(OC)c1)C(CC(=O)O)c1ccc(Cl)cc1 (stereo not drawn) [Example 135, 3-(Butyl-{4-[3-(2,5-dioxo-pyrrolidin-1-yl)-propyl]-3-methoxy-benzyl}-amino)-3-(4-chloro-phenyl)-propionic acid]
5 | 240 | Cc1cc(CN(CC(C)C)C(CC(=O)O)c2ccc(Cl)cc2)ccc1CCCN1C(=O)CCC1=O (stereo not drawn) [Example 137, 3-(4-Chloro-phenyl)-3-({4-[3-(2,5-dioxo-pyrrolidin-1-yl)-propyl]-3-methyl-benzyl}-isobutyl-amino)-propionic acid]
6 | 190 | COc1cc(CN(C2CCC2)C(CC(=O)O)c2ccc(Cl)cc2)ccc1CCCN1C(=O)CCC1=O (stereo not drawn) [Example 138, 3-(4-Chloro-phenyl)-3-(cyclobutyl-{4-[3-(2,5-dioxo-pyrrolidin-1-yl)-propyl]-3-methoxy-benzyl}-amino)-propionic acid]
7 | 54 | COc1cc(CN(CC2CCCC2)C(CC(=O)O)c2ccc3c(c2)CCO3)ccc1CCCN1C(=O)CCC1=O (stereo not drawn) [Example 139, 3-(Cyclopentylmethyl-{4-[3-(2,5-dioxo-pyrrolidin-1-yl)-propyl]-3-methoxy-benzyl}-amino)-3-(2,3-dihydro-benzofuran-5-yl)-propionic acid]
8 | 51 | CCCCN(Cc1ccc(CCCN2C(=O)CCC2=O)c(OC)c1)C(CC(=O)O)c1ccc2c(c1)CCO2 (stereo not drawn) [Example 140, 3-(Butyl-{4-[3-(2,5-dioxo-pyrrolidin-1-yl)-propyl]-3-methoxy-benzyl}-amino)-3-(2,3-dihydro-benzofuran-5-yl)-propionic acid]
9 | 43 | COc1cc(CN(CC(C)C)C(CC(=O)O)c2ccc3c(c2)CCO3)ccc1CCCN1C(=O)CCC1=O (stereo not drawn) [Example 141, 3-(2,3-Dihydro-benzofuran-5-yl)-3-({4-[3-(2,5-dioxo-pyrrolidin-1-yl)-propyl]-3-methoxy-benzyl}-isobutyl-amino)-propionic acid]
10 | 211 | Cc1cc(CN(CC2CC2)C(CC(=O)O)c2ccc3c(c2)CCO3)ccc1CCCN1C(=O)CCC1=O (stereo not drawn) [Example 142, 3-(Cyclopropylmethyl-{4-[3-(2,5-dioxo-pyrrolidin-1-yl)-propyl]-3-methyl-benzyl}-amino)-3-(2,3-dihydro-benzofuran-5-yl)-propionic acid]
11 | 211 | Cc1cc(CN(CC2CCCCC2)C(CC(=O)O)c2ccc3c(c2)CCO3)ccc1CCCN1C(=O)CCC1=O (stereo not drawn) [Example 143, 3-(Cyclohexylmethyl-{4-[3-(2,5-dioxo-pyrrolidin-1-yl)-propyl]-3-methyl-benzyl}-amino)-3-(2,3-dihydro-benzofuran-5-yl)-propionic acid]
12 | 38 | CCCCN(Cc1ccc(OCCN2C(=O)CCC2=O)c(C)c1)C(CC(=O)O)c1ccc2c(c1)CCO2 (stereo not drawn) [Example 145, 3-(Butyl-{4-[2-(2,5-dioxo-pyrrolidin-1-yl)-ethoxy]-3-methyl-benzyl}-amino)-3-(2,3-dihydro-benzofuran-5-yl)-propionic acid]
13 | 56 | COc1cc(CN(CC2CCCC2)C(CC(=O)O)c2ccc3c(c2)CCO3)ccc1OCCN1C(=O)CCC1=O (stereo not drawn) [Example 146, 3-(Cyclopentylmethyl-{4-[2-(2,5-dioxo-pyrrolidin-1-yl)-ethoxy]-3-methoxy-benzyl}-amino)-3-(2,3-dihydro-benzofuran-5-yl)-propionic acid]
14 | 46 | Cc1cc(CN(CC2CCCC2)C(CC(=O)O)c2ccc3c(c2)CCO3)ccc1OCCN1C(=O)CCC1=O (stereo not drawn) [Example 147, 3-(Cyclopentylmethyl-{4-[2-(2,5-dioxo-pyrrolidin-1-yl)-ethoxy]-3-methyl-benzyl}-amino)-3-(2,3-dihydro-benzofuran-5-yl)-propionic acid]
15 | 28 | COc1cc(CN(CC2CCCCC2)C(CC(=O)O)c2ccc3c(c2)CCO3)ccc1OCCN1C(=O)CCC1=O (stereo not drawn) [Example 148, 3-(Cyclohexylmethyl-{4-[2-(2,5-dioxo-pyrrolidin-1-yl)-ethoxy]-3-methoxy-benzyl}-amino)-3-(2,3-dihydro-benzofuran-5-yl)-propionic acid]
16 | 72 | Cc1cc(CN(CC2CCCCC2)C(CC(=O)O)c2ccc3c(c2)CCO3)ccc1OCCN1C(=O)CCC1=O (stereo not drawn) [Example 149, 3-(Cyclohexylmethyl-{4-[2-(2,5-dioxo-pyrrolidin-1-yl)-ethoxy]-3-methyl-benzyl}-amino)-3-(2,3-dihydro-benzofuran-5-yl)-propionic acid]
17 | 140 | CCCCN(Cc1ccc(OCCN2C(=O)CCC2=O)c(OC)c1)C(CC(=O)O)c1ccc(Cl)cc1Cl (stereo not drawn) [Example 150, 3-(Butyl-{4-[2-(2,5-dioxo-pyrrolidin-1-yl)-ethoxy]-3-methoxy-benzyl}-amino)-3-(2,4-dichloro-phenyl)-propionic acid]
18 | 754 | COc1cc(CN(C)C(c2ccc(Cl)cc2)C(C)C(=O)O)ccc1OCCn1c(=O)ccn(C)c1=O (stereo not drawn) [Example 152, 3-(4-Chloro-phenyl)-3-({3-methoxy-4-[2-(3-methyl-2,6-dioxo-3,6-dihydro-2H-pyrimidin-1-yl)-ethoxy]-benzyl}-methyl-amino)-2-methyl-propionic acid]
19 | 635 | CCN(Cc1ccc(OCCn2c(=O)ccn(C)c2=O)c(OC)c1)C(c1ccc(Cl)cc1)C(C)C(=O)O (stereo not drawn) [Example 153, 3-(4-Chloro-phenyl)-3-(ethyl-{3-methoxy-4-[2-(3-methyl-2,6-dioxo-3,6-dihydro-2H-pyrimidin-1-yl)-ethoxy]-benzyl}-amino)-2-methyl-propionic acid]
20 | 58 | CCN(Cc1ccc(OCCn2c(=O)ccn(C)c2=O)c(C)c1)C(CC(=O)O)c1ccc2c(c1)CCO2 (stereo not drawn) [Example 154, 3-(2,3-Dihydro-benzofuran-5-yl)-3-(ethyl-{3-methyl-4-[2-(3-methyl-2,6-dioxo-3,6-dihydro-2H-pyrimidin-1-yl)-ethoxy]-benzyl}-amino)-propionic acid]
21 | 529 | CCCN(Cc1ccc(OCCn2c(=O)ccn(C)c2=O)c(C)c1)C(CC(=O)O)c1ccc2c(c1)CCO2 (stereo not drawn) [Example 155, 3-(2,3-Dihydro-benzofuran-5-yl)-3-({3-methyl-4-[2-(3-methyl-2,6-dioxo-3,6-dihydro-2H-pyrimidin-1-yl)-ethoxy]-benzyl}-propyl-amino)-propionic acid]
22 | 120 | COc1cc(CN(CC2CC2)C(CC(=O)O)c2ccc(Cl)cc2Cl)ccc1OCCn1c(=O)ccn(C)c1=O (stereo not drawn) [Example 156, 3-(Cyclopropylmethyl-{3-methoxy-4-[2-(3-methyl-2,6-dioxo-3,6-dihydro-2H-pyrimidin-1-yl)-ethoxy]-benzyl}-amino)-3-(2,4-dichloro-phenyl)-propionic acid]
23 | 75 | Cc1cc(CN(CC(C)C)C(CC(=O)O)c2ccc3c(c2)CCO3)ccc1OCCn1c(=O)ccn(C)c1=O (stereo not drawn) [Example 158, 3-(2,3-Dihydro-benzofuran-5-yl)-3-(isobutyl-{3-methyl-4-[2-(3-methyl-2,6-dioxo-3,6-dihydro-2H-pyrimidin-1-yl)-ethoxy]-benzyl}-amino)-propionic acid]
24 | 354 | CCCN(Cc1ccc(OCCn2c(=O)ccn(C)c2=O)c(OC)c1)C(CC(=O)O)c1ccc(Cl)cc1Cl (stereo not drawn) [Example 159, 3-(2,4-Dichloro-phenyl)-3-({3-methoxy-4-[2-(3-methyl-2,6-dioxo-3,6-dihydro-2H-pyrimidin-1-yl)-ethoxy]-benzyl}-propyl-amino)-propionic acid]
25 | 81 | Cc1cc(CN(CC2CCCC2)C(CC(=O)O)c2ccc3c(c2)CCO3)ccc1OCCn1c(=O)ccn(C)c1=O (stereo not drawn) [Example 160, 3-(Cyclopentylmethyl-{3-methyl-4-[2-(3-methyl-2,6-dioxo-3,6-dihydro-2H-pyrimidin-1-yl)-ethoxy]-benzyl}-amino)-3-(2,3-dihydro-benzofuran-5-yl)-propionic acid]
26 | 76 | CCCCN(Cc1ccc(OCCn2c(=O)ccn(C)c2=O)c(C)c1)C(CC(=O)O)c1ccc2c(c1)CCO2 (stereo not drawn) [Example 161, 3-(Butyl-{3-methyl-4-[2-(3-methyl-2,6-dioxo-3,6-dihydro-2H-pyrimidin-1-yl)-ethoxy]-benzyl}-amino)-3-(2,3-dihydro-benzofuran-5-yl)-propionic acid]
27 | 162 | Cc1cc(CN(CC2CC2)C(CC(=O)O)c2ccc(Cl)cc2Cl)ccc1OCCN1C(=O)CCC1=O (stereo not drawn) [Example 163, 3-(Cyclopropylmethyl-{4-[2-(2,5-dioxo-pyrrolidin-1-yl)-ethoxy]-3-methyl-benzyl}-amino)-3-(2,4-dichloro-phenyl)-propionic acid]
28 | 133 | CCCCN(Cc1ccc(OCCN2C(=O)CCC2=O)c(C)c1)C(CC(=O)O)c1ccc(Cl)cc1Cl (stereo not drawn) [Example 164, 3-(Butyl-{4-[2-(2,5-dioxo-pyrrolidin-1-yl)-ethoxy]-3-methyl-benzyl}-amino)-3-(2,4-dichloro-phenyl)-propionic acid]
29 | 75 | COc1cc(CN(Cc2ccc(F)cc2)C(CC(=O)O)c2ccc(Cl)cc2)ccc1OCCN1C(=O)CCC1=O (stereo not drawn) [Example 165, 3-(4-Chloro-phenyl)-3-[{4-[2-(2,5-dioxo-pyrrolidin-1-yl)-ethoxy]-3-methoxy-benzyl}-(4-fluoro-benzyl)-amino]-propionic acid; hydrochloride]
30 | 2440 | Cc1cc(CN(CCC(F)(F)F)C(CC(=O)O)c2ccc(Cl)c(Cl)c2)ccc1OCCN1C(=O)CCC1=O (stereo not drawn) [Example 167, 3-(3,4-Dichloro-phenyl)-3-[{4-[2-(2,5-dioxo-pyrrolidin-1-yl)-ethoxy]-3-methyl-benzyl}-(3,3,3-trifluoro-propyl)-amino]-propionic acid]
